Results as given in patent US8546343B2, “Aminoglycoside antibiotics targeting bacterial 16S ribosomal RNA” (Eidgenoessische Technische Hochschule Zurich, priority 2007, dated 2013).
Converted amounts (≈) assume the structure as drawn.

Key:
[1] = tested on: AG016 S. aureus BM3002; test: Standard MIC assay, AG016; format: cell-based, Staphylococcus aureus
Method: (§1) Selected compounds of the present invention were tested for antibiotic susceptibility using clinical isolates of Staphylococci, Enterococci and Escherichia coli as well as strains carrying defined resistance determinants and compared to well known antibiotics of the state of the art. Drug susceptibility was determined in standard MIC assays, i.e. by determination of the minimal drug concentration required to inhibit bacterial growth in vitro.

[2] = tested on: AG017 E. faecalis JH2-2; test: Standard MIC assay, AG017; format: cell-based, Enterococcus faecalis
Method: as §1

[3] = tested on: AG006 E. coli BM13; test: Standard MIC assay, AG006; format: cell-based, Escherichia coli
Method: as §1

[4] = tested on: M. smegmatis ΔrrnB 1491A (16S rRNA position 1491 A, eukaryotic cytosolic ribosomes); test: MIC, recombinant M. smegmatis with mutant ribosomes 1491A; format: cell-based, Mycobacterium smegmatis; settings: M. smegmatis ΔrrnB 1491A mutant ribosomes; 72 h at 37° C.
Source text: (§2) The strain used for introduction/selection of mutational alterations was a genetically modified derivative of Mycobacterium smegmatis carrying a single functional chromosomal rRNA operon (Sander et al. Mol. Microbiol. 1996, 22: 841-848). This strain, termed M. smegmatis rrn^−, allowed for the selection of mutational rRNA gene alterations using a plasmid carrying the rRNA gene with the respective mutational alteration.)
(§3) The rRNA gene carried on the plasmid encodes either the complete rRNA operon (Prammananan et al. Antimicrob. Agents Chemother. 1999, 43: 447-453) or a non-functional rRNA gene fragment of approximately 1.0 kb (Pfister et al. Antimicrob. Agents Chemother. 2003, 47: 1496-1502). PCR-mutagenesis in vitro was used to generate the mutagenized rRNA gene fragment. In the case of a partial rRNA gene fragment the mutagenized rRNA gene fragment was cloned into vectors pMV261 or pMV361 (Sander et al. Mol. Microbiol. 2002, 46: 1295-1304; Pfister et al. Antimicrob. Agents Chemother. 2003, 47: 1496-1502) to result in vectors carrying a partial rRNA gene fragment of approximately 1.0 kb with the mutational alteration introduced. In the case of plasmids carrying the complete rRNA operon the mutagenized rRNA gene fragment obtained by PCR was cloned into vectors pMV361 rRNA or pMV261 rRNA using appropriate restriction sites (Prammananan et al. Antimicrob. Agents Chemother. 1999, 43: 447-453). Vectors pMV361 rRNA and pMV261 rRNA carried a complete copy of the rRNA operon from M. smegmatis (Sander et al. Mol. Microbiol. 1997, 26: 469-480). Introduction of mutations into the plasmid encoded rRNA was confirmed by sequencing.
(§4) The single rRNA allelic derivative of M. smegmatis, i.e. M. smegmatis rrn, was used for transformation of the plasmids. The strain was made electro-competent and transformed according to standard techniques and as described previously (Sander et al. Mol. Microbiol. 1997, 26: 469-484). Following primary selection, the plasmid-encoded mutational rRNA gene alteration was transferred into the single chromosomal rRNA operon by means of RecA-mediated homologous recombination (Prammananan at al. Antimicrob. Agents Chemother. 1999, 43: 447-453). Introduction of the mutational rRNA gene alteration into the single functional chromosomal rRNA operon by gene conversion was confirmed by sequence determination.
(§5) Ribosomal drug susceptibility was studied by determining the minimal inhibitory concentrations, as described in detail in Pfister et al. 2003 and 2005 (see above).
(§6) The recombinants carrying the respective mutational alterations in the functional rRNA operon were colony-purified and subjected to determinations of minimal inhibitory concentrations (MIC) to determine ribosomal drug susceptibility. Cultures from single colonies were grown in LB medium supplemented with 0.05% Tween 80 and used for MIC tests in a microtiter plate format. Starting cultures contained 200 μl of bacterial cells at an optical density of 0.025 at 600 nm, and the respective drug was added in twofold series of dilution.
(§7) Key nucleotides which distinguish the prokaryotic from the eukaryotic decoding site are 16S rRNA positions 1408 (bacterial ribosome: A, eukaryotic cytosolic ribosomes: G) and 1491 (bacterial ribosomes: G, eukaryotic cytosolic ribosomes: A, eukaryotic mitochondrial ribosome: C).

[5] = tested on: M. smegmatis ΔrrnB 1491C (16S rRNA position 1491 C, eukaryotic mitochondrial ribosome); test: MIC, recombinant M. smegmatis with mutant ribosomes 1491C; format: cell-based, Mycobacterium smegmatis; settings: M. smegmatis ΔrrnB 1491C mutant ribosomes; 72 h at 37° C.
Source text: as §2, §3, §4, §5, §6, §7

[6] = tested on: AG008 E. coli BM13 (ANT2″); test: Standard MIC assay, AG008; format: cell-based, Escherichia coli; settings: E. coli BM13 (ANT2″)
Method: as §1

[7] = tested on: AG001 E. coli clinical isolate; test: Standard MIC assay, AG001; format: cell-based, Escherichia coli
Method: as §1

[8] = tested on: AG011 Staph. aureus clinical isolate; test: Standard MIC assay, AG011; format: cell-based, Staphylococcus aureus
Method: as §1

[9] = tested on: AG014 Staph. epi. clinical isolate; test: Standard MIC assay, AG014; format: cell-based, Staphylococcus epidermidis
Method: as §1

[10] = tested on: M. smegmatis ΔrrnB 1408G (16S rRNA position 1408 G, eukaryotic cytosolic ribosomes); test: MIC, recombinant M. smegmatis with mutant ribosomes 1408G; format: cell-based, Mycobacterium smegmatis; settings: M. smegmatis ΔrrnB 1408G mutant ribosomes; 72 h at 37° C.
Source text: as §2, §3, §4, §5, §6, §7

[11] = tested on: AG009 E. coli BM13 AAC(6′)-1B; test: Standard MIC assay, AG009; format: cell-based, Escherichia coli; settings: E. coli BM13 AAC(6′)-1B
Method: as §1

[12] = tested on: AG019 E. faecalis JH2-2 (APH2″ AAC6′); test: Standard MIC assay, AG019; format: cell-based, Enterococcus faecalis; settings: E. faecalis JH2-2 (APH2″ AAC6′)
Method: as §1

[13] = tested on: AG015 S. aureus BM3002 (ANT4′); test: Standard MIC assay, AG015; format: cell-based, Staphylococcus aureus; settings: S. aureus BM3002 (ANT4′)
Method: as §1

[14] = tested on: AG013 Staph. epi. clinical isolate; test: Standard MIC assay, AG013; format: cell-based, Staphylococcus epidermidis
Method: as §1

[15] = tested on: AG004 E. coli clinical isolate; test: Standard MIC assay, AG004; format: cell-based, Escherichia coli
Method: as §1

[16] = tested on: AG007 E. coli BM13 (AAC3); test: Standard MIC assay, AG007; format: cell-based, Escherichia coli; settings: E. coli BM13 (AAC3)
Method: as §1

[17] = tested on: M. smegmatis ΔrrnB (bacterial ribosomes); test: MIC, recombinant M. smegmatis with bacterial (wild-type) ribosomes; format: cell-based, Mycobacterium smegmatis; settings: 72 h at 37° C.
Source text: as §2, §3, §4, §5, §6, §7

[18] = tested on: AG002 E. coli clinical isolate; test: Standard MIC assay, AG002; format: cell-based, Escherichia coli
Method: as §1

[19] = tested on: AG003 E. coli clinical isolate; test: Standard MIC assay, AG003; format: cell-based, Escherichia coli
Method: as §1

NC[C@@H]1O[C@H](O[C@H]2[C@@H](O)[C@H](O[C@@H]3[C@@H](O)[C@H](N)C[C@H](N)[C@H]3O[C@H]3O[C@@H]4CO[C@@H](c5ccc(Cl)cc5)O[C@H]4[C@H](O)[C@H]3N)O[C@@H]2CO)[C@H](N)[C@@H](O)[C@@H]1O [Compound 5.8, 4′,6′-O-p-Chlorobenzylideneparomomycin]
Minimal inhibitory concentrations AG016 [1]: 8 µg/mL (≈ 10.8 µM)
Minimal inhibitory concentrations AG017 [2]: 16 to 32 µg/mL
Minimal inhibitory concentrations AG006 [3]: 64 µg/mL (≈ 86.7 µM)
minimal inhibitory concentrations ΔrrnB 1491A [4]: >512 µg/mL
minimal inhibitory concentrations ΔrrnB 1491C [5]: >512 µg/mL
Minimal inhibitory concentrations AG008 [6]: 64 µg/mL (≈ 86.7 µM)
Minimal inhibitory concentrations AG001 [7]: 32 µg/mL (≈ 43.3 µM)
Minimal inhibitory concentrations AG011 [8]: 4 to 8 µg/mL
Minimal inhibitory concentrations AG014 [9]: 8 to 16 µg/mL
minimal inhibitory concentrations ΔrrnB 1408G [10]: >512 µg/mL
Minimal inhibitory concentrations AG009 [11]: 64 µg/mL (≈ 86.7 µM)
Minimal inhibitory concentrations AG019 [12]: 64 µg/mL (≈ 86.7 µM)
Minimal inhibitory concentrations AG015 [13]: 16 µg/mL (≈ 21.7 µM)
Minimal inhibitory concentrations AG013 [14]: 8 µg/mL (≈ 10.8 µM)
Minimal inhibitory concentrations AG004 [15]: 16 to 32 µg/mL
Minimal inhibitory concentrations AG007 [16]: 64 µg/mL (≈ 86.7 µM)
minimal inhibitory concentrations ΔrrnB [17]: 4 µg/mL

NC[C@@H]1O[C@H](O[C@H]2[C@@H](O)[C@H](O[C@@H]3[C@@H](O)[C@H](N)C[C@H](N)[C@H]3O[C@H]3O[C@@H]4CO[C@@H](c5ccc6ccccc6c5)O[C@H]4[C@H](O)[C@H]3N)O[C@@H]2CO)[C@H](N)[C@@H](O)[C@@H]1O [Compound 5.20, 4′,6′-O-2-Naphthylideneparomomycin]
Minimal inhibitory concentrations AG016 [1]: 4 µg/mL (≈ 5.31 µM)
Minimal inhibitory concentrations AG017 [2]: 8 to 16 µg/mL
Minimal inhibitory concentrations AG006 [3]: 8 to 16 µg/mL
minimal inhibitory concentrations ΔrrnB 1491A [4]: 512 µg/mL
minimal inhibitory concentrations ΔrrnB 1491C [5]: 512 µg/mL
Minimal inhibitory concentrations AG008 [6]: 16 µg/mL (≈ 21.2 µM)
Minimal inhibitory concentrations AG001 [7]: 8 µg/mL (≈ 10.6 µM)
Minimal inhibitory concentrations AG011 [8]: 1 to 2 µg/mL
Minimal inhibitory concentrations AG014 [9]: 1 µg/mL (≈ 1.33 µM)
minimal inhibitory concentrations ΔrrnB 1408G [10]: >512 µg/mL
Minimal inhibitory concentrations AG009 [11]: 16 to 32 µg/mL
Minimal inhibitory concentrations AG019 [12]: 8 to 16 µg/mL
Minimal inhibitory concentrations AG015 [13]: 8 to 16 µg/mL
Minimal inhibitory concentrations AG013 [14]: 1 µg/mL (≈ 1.33 µM)
Minimal inhibitory concentrations AG004 [15]: 8 µg/mL (≈ 10.6 µM)
Minimal inhibitory concentrations AG007 [16]: 16 to 32 µg/mL
minimal inhibitory concentrations ΔrrnB [17]: 2 to 4 µg/mL

NC[C@@H]1O[C@H](O[C@H]2[C@@H](O)[C@H](O[C@@H]3[C@@H](O)[C@H](N)C[C@H](N)[C@H]3O[C@H]3O[C@H](CO)[C@@H](OCCCc4ccccc4)[C@H](O)[C@H]3N)O[C@@H]2CO)[C@H](N)[C@@H](O)[C@@H]1O [Compound 19c, 4′-p-(3-phenylpropyl)paromomycin]
Minimal inhibitory concentrations AG002 [18]: 16 µg/mL (≈ 21.8 µM)
Minimal inhibitory concentrations AG016 [1]: 4 µg/mL (≈ 5.45 µM)
Minimal inhibitory concentrations AG017 [2]: 8 to 16 µg/mL
Minimal inhibitory concentrations AG006 [3]: 8 to 16 µg/mL
minimal inhibitory concentrations ΔrrnB 1491A [4]: ≧512 μg/ml
minimal inhibitory concentrations ΔrrnB 1491C [5]: 512 µg/mL
Minimal inhibitory concentrations AG008 [6]: 8 to 16 µg/mL
Minimal inhibitory concentrations AG001 [7]: 16 to 32 µg/mL
Minimal inhibitory concentrations AG014 [9]: 2 µg/mL (≈ 2.73 µM)
minimal inhibitory concentrations ΔrrnB 1408G [10]: ≧512 μg/ml
Minimal inhibitory concentrations AG009 [11]: 32 µg/mL (≈ 43.6 µM)
Minimal inhibitory concentrations AG019 [12]: 32 µg/mL (≈ 43.6 µM)
Minimal inhibitory concentrations AG015 [13]: 16 µg/mL (≈ 21.8 µM)
Minimal inhibitory concentrations AG013 [14]: 4 to 8 µg/mL
Minimal inhibitory concentrations AG003 [19]: 8 to 16 µg/mL
Minimal inhibitory concentrations AG004 [15]: 16 µg/mL (≈ 21.8 µM)
Minimal inhibitory concentrations AG007 [16]: 8 to 16 µg/mL
minimal inhibitory concentrations ΔrrnB [17]: 8 to 16 µg/mL
